Data as given in PubChem BioAssay (NCI).
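Cells were grown in 96-well plates and exposed to each compound for 48 hours at five concentrations; endpoints were interpolated linearly between bracketing concentrations, or set to the highest concentration if not reached. The concentration for 50% growth inhibition is given as GI50. TGI: total growth inhibition.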

Assays:
Assay in all cases: NCI-60 cell line screen, 48 h
CCRF-CEM leukemia = system: CCRF-CEM leukemia
SF-539 CNS = system: SF-539 CNS
LOX IMVI melanoma = system: LOX IMVI melanoma
K-562 leukemia = system: K-562 leukemia
MALME-3M melanoma = system: MALME-3M melanoma
786-0 renal = system: 786-0 renal
OVCAR-4 ovarian = system: OVCAR-4 ovarian
PC-3 prostate = system: PC-3 prostate
NCI/ADR-RES ovarian = system: NCI/ADR-RES ovarian
T-47D breast = system: T-47D breast

Compound | TGI (CCRF-CEM leukemia) [µM] | TGI (SF-539 CNS) [µM] | TGI (LOX IMVI melanoma) [µM] | TGI (K-562 leukemia) [µM] | TGI (MALME-3M melanoma) [µM] | TGI (786-0 renal) [µM] | GI50 (OVCAR-4 ovarian) [µM] | TGI (OVCAR-4 ovarian) [µM] | GI50 (CCRF-CEM leukemia) [µM] | GI50 (LOX IMVI melanoma) [µM] | GI50 (K-562 leukemia) [µM] | GI50 (PC-3 prostate) [µM] | TGI (PC-3 prostate) [µM] | GI50 (MALME-3M melanoma) [µM] | GI50 (NCI/ADR-RES ovarian) [µM] | TGI (NCI/ADR-RES ovarian) [µM] | GI50 (786-0 renal) [µM] | TGI (T-47D breast) [µM] | GI50 (SF-539 CNS) [µM] | GI50 (T-47D breast) [µM]
CC(C)(C)NC(=O)C12C3C4C1C1C2C3C41I (stereo not drawn) | > 100 | > 100 | > 100 | > 100 | > 100 | > 100 |  |  |  |  |  |  |  |  |  |  |  |  |  | 
CCCCC#Cc1c(I)n(C2OC(CO[Si](C)(C)C(C)(C)C)C3OC(C)(C)OC32)c(=O)[nH]c1=O (stereo not drawn) | 8.04 |  | > 100 | 5.02 | 24.8 | 29 | 3.84 | 16.1 | 2.64 | 3.39 | 2.02 | 2.8 | 10.4 | 5.45 | 18.1 | 49.7 | 15.4 |  |  | 
COC(=O)CC[C@@H](NC(=O)C(C)NC(=O)COC1C(O)C(COC(=O)CCCCCCCCCCNC(=O)c2ccc([N+](=O)[O-])c3[nH]c4cc(Br)ccc4c(=O)c23)OC(OCc2ccccc2)C1NC(C)=O)C(N)=O (stereo partly drawn) | > 100 | > 100 | > 100 | > 100 | > 100 | > 100 |  | > 100 |  |  |  |  |  |  |  |  |  |  |  | 
CC(=O)OCC1OC(n2c(-c3ccc(N)cc3)cc(-c3ccco3)c(C#N)c2=O)C(OC(C)=O)C(OC(C)=O)C1OC(C)=O (stereo not drawn) |  | 30.2 | > 50 |  | > 50 | > 50 |  | > 50 |  |  |  |  |  |  |  |  |  |  |  | 
CC(=O)NC1=NC(=O)/C(=C/c2ccc(Cl)cc2Cl)N1C | 34.8 | > 100 | > 100 |  |  | > 100 |  | > 100 |  |  |  |  | > 100 |  |  | > 100 |  |  |  | 
Cn1c(=O)c2[nH]c(Nc3ccccc3)nc2n(C)c1=O | > 10 |  | > 10 | > 10 | > 10 | > 10 |  | > 10 |  |  |  |  | > 10 |  |  |  |  | > 10 |  | 
Cc1ccc(NC(=O)C(=O)C2C(=O)C3=C(CC2(C)C)NC2C=CC=CC2S3)c(C)c1 (stereo not drawn) | > 100 | > 100 | > 100 |  |  | > 100 |  | > 100 |  |  |  |  | > 100 |  |  | > 100 |  |  |  | 
COc1cc(OC)cc(-c2n[nH]nc2-c2ccc3c(c2)OCO3)c1 | > 100 | 0.546 | 87.1 | > 100 |  | 63.5 | 0.763 | > 100 | 0.282 | 0.545 | 0.0496 | 0.255 | 43.7 |  | 0.0849 | 24 | 0.618 |  | 0.181 | 
CCOc1cccc2cccnc12 | > 100 | > 100 | > 100 | > 100 | > 100 | > 100 |  | > 100 |  |  |  |  |  |  |  |  |  |  |  | 
CCC(C)CNC1=C(NC(C)=O)C(=O)c2ccccc2C1=O (stereo not drawn) | > 100 | > 100 | > 100 | > 100 | > 100 | > 100 |  | > 100 |  |  |  |  |  |  |  |  |  |  |  | 
O=C(/C=C(\O)C(=O)O)/C=C(\O)c1ccc(Cl)cc1 | > 100 | > 100 | > 100 | > 100 | > 100 | > 100 |  | > 100 |  |  |  |  |  |  |  |  |  |  |  | 
COC(=O)c1ccc2n[se]nc2c1 | > 100 | > 100 | > 100 | > 100 | > 100 | > 100 |  | > 100 |  |  |  |  |  |  |  |  |  |  |  | 
O=C(CC1Sc2ccccc2NC1=O)Nc1ccc([N+](=O)[O-])cc1[N+](=O)[O-] (stereo not drawn) | 39.6 |  | 30.1 |  | 40.6 | 31.7 |  | 52.6 |  |  |  |  |  |  |  |  |  |  |  | 
COc1cc(C2CC(c3ccc(C)cc3)=NN2C(C)=O)ccc1Oc1ccnc2cc(Cl)ccc12 (stereo not drawn) | > 100 | > 100 |  | > 100 | > 100 | 10.4 |  |  | > 100 |  | > 100 | > 100 | > 100 | > 100 |  |  | 1.17 | 73.4 | 11.7 | 2.28
Cc1cccc2c1NC(c1c(C)[nH]c3ccccc13)C2 (stereo not drawn) | > 100 | > 100 | > 100 | > 100 | > 100 | > 100 |  |  |  |  |  |  |  |  |  |  |  |  |  | 
COC(=O)C1=C(SC)SC2(C(=O)OC)C3C=C(C)C4C(N13)C42C(=O)OC (stereo not drawn) | > 100 | > 100 | > 100 | > 100 | > 100 | > 100 |  |  |  |  |  |  |  |  |  |  |  |  |  | 
CC1=NN(C(=O)CC(=O)Nc2ccccc2)C(=O)C1N=Nc1ccc(S(N)(=O)=O)cc1 (stereo not drawn) | > 100 | > 100 | > 100 | > 100 | > 100 | > 100 |  | > 100 |  |  |  |  |  |  |  |  |  |  |  | 
